{"source": "ChEMBL document CHEMBL1201862", "about": "“PubChem BioAssay data set” (2004)", "key": {"[1]": {"target": "T1, DNA repair protein RAD52 homolog (Homo sapiens, UniProt P43351)", "T1 sequence (P43351 whole entry)": "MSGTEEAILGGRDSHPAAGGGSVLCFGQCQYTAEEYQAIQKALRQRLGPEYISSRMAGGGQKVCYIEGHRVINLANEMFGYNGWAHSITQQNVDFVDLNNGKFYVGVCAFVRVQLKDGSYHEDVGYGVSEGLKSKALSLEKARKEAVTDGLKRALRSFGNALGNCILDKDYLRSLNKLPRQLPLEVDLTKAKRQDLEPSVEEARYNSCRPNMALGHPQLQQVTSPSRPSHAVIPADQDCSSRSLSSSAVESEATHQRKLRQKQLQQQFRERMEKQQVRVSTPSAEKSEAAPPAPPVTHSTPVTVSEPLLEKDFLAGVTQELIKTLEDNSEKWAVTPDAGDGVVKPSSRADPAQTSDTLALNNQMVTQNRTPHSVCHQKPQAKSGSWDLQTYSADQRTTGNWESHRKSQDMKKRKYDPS", "assay_type": "functional, biochemical"}, "[2]": {"target": "DNA (cytosine-5)-methyltransferase 1 (Homo sapiens, UniProt P26358)", "sequence (P26358 whole entry)": "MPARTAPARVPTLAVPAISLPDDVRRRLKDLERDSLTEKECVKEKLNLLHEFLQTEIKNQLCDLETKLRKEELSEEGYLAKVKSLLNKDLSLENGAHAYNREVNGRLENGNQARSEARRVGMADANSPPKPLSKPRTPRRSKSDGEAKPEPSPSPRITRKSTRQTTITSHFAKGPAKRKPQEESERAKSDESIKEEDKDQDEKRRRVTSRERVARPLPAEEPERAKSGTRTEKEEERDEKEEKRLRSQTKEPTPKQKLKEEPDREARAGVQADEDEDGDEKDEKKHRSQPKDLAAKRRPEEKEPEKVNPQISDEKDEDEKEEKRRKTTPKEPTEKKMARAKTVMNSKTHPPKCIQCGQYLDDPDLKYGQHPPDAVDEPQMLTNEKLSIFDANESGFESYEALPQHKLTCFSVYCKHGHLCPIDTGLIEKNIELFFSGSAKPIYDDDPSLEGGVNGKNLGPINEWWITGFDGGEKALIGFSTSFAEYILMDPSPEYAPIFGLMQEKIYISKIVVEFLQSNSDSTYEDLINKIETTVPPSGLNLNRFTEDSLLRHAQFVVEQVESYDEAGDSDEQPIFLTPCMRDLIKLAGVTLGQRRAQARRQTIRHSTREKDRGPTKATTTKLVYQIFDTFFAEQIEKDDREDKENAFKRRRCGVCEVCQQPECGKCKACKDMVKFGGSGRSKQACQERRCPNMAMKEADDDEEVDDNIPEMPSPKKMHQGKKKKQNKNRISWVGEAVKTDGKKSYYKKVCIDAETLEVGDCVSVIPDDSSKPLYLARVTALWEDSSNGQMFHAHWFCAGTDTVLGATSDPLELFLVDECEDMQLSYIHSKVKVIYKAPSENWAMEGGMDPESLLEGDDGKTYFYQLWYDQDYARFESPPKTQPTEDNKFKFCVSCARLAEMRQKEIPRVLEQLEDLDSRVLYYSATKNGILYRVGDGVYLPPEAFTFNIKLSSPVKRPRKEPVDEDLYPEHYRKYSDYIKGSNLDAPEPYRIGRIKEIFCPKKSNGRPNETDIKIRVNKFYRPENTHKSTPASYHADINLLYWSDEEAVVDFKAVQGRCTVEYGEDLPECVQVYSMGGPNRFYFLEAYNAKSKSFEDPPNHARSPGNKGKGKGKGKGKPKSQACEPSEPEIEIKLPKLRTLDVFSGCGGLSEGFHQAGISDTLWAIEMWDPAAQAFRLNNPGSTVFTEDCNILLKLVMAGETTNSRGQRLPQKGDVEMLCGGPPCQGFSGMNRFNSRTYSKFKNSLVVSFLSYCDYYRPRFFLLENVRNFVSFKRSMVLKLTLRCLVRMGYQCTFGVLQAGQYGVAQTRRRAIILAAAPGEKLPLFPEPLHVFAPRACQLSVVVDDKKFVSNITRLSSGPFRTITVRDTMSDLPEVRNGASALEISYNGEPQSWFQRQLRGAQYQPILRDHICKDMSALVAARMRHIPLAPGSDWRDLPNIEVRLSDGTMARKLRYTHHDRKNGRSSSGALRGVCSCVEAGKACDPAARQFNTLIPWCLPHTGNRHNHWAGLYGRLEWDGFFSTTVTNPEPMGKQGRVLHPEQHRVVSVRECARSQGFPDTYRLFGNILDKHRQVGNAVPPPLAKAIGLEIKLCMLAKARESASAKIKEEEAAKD", "assay": "inhibition of DNA methylation by DNMT1 – biochemical, fluorescent molecular beacon, confirmation (AID 602386)", "assay_type": "functional"}, "[3]": {"target": "T2, Carboxy-terminal domain RNA polymerase II polypeptide A small phosphatase 1 (Homo sapiens, UniProt Q9GZU7)", "T2 sequence (Q9GZU7 whole entry)": "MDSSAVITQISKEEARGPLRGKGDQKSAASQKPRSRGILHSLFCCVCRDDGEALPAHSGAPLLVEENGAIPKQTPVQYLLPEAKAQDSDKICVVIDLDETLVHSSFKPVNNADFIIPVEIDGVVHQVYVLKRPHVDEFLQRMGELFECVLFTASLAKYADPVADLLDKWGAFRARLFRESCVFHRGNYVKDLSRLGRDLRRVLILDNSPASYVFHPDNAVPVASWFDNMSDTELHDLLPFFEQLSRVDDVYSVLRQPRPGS", "assay": "CTDSP1 inhibitors, concentration-response, biochemical, absorbance readout, ultra-high-throughput screen actives (AID 540297)", "assay_type": "functional"}, "[4]": {"assay": "alpha-synuclein stem-loop luciferase translation blockers – H4 neuroglioma cells, luminescence, confirmation (AID 1988)", "assay_type": "functional, cell-based"}, "[5]": {"assay": "Luminescence Cell-Based Dose Response HTS to Identify Inhibitors of 5'UTR Stem-Loop Driven Prion Protein mRNA Translation in H4 Neuroglioblastoma Cells. [Related pubchem assays: 1827 (Project Summary), 1813 (Primary HTS)]", "assay_type": "functional"}, "[6]": {"assay": "luciferase reporter signal suppression in cells – H4 neuroglioma cells, luminescence, dose response (AID 1990)", "assay_type": "functional, cell-based"}, "[7]": {"target": "T3, Nuclear receptor subfamily 0 group B member 1 (Homo sapiens, UniProt P51843)", "T3 sequence (P51843 whole entry)": "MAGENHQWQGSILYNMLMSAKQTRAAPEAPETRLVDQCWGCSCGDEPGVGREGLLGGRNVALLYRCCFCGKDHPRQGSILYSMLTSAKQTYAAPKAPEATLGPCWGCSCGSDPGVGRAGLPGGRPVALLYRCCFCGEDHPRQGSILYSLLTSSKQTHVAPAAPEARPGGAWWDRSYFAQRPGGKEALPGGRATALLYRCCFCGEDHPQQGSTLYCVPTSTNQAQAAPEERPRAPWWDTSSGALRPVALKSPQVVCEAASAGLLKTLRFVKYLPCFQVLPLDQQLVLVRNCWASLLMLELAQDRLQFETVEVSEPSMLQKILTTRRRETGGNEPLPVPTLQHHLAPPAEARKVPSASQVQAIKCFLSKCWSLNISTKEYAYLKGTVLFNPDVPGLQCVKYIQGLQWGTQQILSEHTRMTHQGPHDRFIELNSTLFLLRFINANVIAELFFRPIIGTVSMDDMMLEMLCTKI", "assay_type": "functional, cell-based"}, "cells": {"assay": "cells", "assay_type": "functional, cell-based"}, "[8]": {"target": "SWI/SNF-related matrix-associated actin-dependent regulator of chromatin subfamily A member 2 (Homo sapiens, UniProt P51531)", "sequence (P51531 whole entry)": "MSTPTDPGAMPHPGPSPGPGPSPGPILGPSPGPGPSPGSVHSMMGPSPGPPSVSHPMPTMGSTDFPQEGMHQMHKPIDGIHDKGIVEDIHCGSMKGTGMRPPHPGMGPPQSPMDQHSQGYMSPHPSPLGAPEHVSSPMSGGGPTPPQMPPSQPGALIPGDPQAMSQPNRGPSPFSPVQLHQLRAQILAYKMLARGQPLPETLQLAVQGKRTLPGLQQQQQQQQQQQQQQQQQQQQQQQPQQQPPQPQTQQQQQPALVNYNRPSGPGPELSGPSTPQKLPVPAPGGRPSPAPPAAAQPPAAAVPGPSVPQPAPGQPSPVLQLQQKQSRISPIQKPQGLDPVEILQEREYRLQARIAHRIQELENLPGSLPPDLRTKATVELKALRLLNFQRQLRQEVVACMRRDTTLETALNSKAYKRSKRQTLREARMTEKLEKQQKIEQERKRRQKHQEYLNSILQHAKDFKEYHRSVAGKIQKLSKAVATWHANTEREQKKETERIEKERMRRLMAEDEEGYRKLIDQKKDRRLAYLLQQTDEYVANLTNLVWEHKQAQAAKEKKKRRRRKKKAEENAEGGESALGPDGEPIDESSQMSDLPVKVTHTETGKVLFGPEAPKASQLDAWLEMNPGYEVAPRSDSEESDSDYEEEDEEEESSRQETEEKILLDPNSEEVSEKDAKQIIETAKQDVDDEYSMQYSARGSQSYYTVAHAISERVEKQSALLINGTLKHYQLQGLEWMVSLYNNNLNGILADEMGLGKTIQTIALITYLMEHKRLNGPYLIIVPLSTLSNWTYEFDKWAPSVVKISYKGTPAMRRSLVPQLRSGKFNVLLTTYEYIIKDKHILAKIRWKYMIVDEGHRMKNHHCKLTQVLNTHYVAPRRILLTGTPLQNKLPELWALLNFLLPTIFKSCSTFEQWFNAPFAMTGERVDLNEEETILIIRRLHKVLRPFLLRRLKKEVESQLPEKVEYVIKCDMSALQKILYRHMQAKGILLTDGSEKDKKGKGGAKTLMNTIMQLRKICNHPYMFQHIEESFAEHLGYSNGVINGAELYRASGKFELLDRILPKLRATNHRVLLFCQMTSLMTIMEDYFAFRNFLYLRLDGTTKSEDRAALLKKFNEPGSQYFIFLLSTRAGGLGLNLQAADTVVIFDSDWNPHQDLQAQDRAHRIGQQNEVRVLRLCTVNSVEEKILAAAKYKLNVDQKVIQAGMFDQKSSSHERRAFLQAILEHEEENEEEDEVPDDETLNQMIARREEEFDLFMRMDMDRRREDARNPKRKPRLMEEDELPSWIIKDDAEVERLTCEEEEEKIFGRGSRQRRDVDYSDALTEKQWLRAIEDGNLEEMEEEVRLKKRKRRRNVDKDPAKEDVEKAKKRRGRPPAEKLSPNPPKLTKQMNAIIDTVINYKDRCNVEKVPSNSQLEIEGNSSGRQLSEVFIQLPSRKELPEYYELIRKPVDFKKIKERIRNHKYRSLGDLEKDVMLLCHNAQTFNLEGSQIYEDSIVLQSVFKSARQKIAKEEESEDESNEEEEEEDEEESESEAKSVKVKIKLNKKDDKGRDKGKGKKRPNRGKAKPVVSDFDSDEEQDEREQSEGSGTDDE", "assay": "Luminescence-based cell-based high throughput dose response assay to identify activators of the function of SWI/SNF related, matrix associated, actin dependent regulator of chromatin, subfamily a, member 2 (SMARCA2, BRM).", "assay_type": "functional"}, "[9]": {"assay": "Counterscreen for activators of the function of SWI/SNF related, matrix associated, actin dependent regulator of chromatin, subfamily a, member 2 (SMARCA2, BRM): Luminescence-based cell-based high throughput dose response assay to identify non-selective compounds using the VP16 reporter assay.", "assay_type": "functional"}}, "note": "Activity calls are given as the source filed them.", "data": [{"smiles": "NCCCNC(=S)NCCCN(Cc1ccc(Cl)cc1)c1ccc(Br)cn1", "values": [{"measurement": "AC50", "setting": "[1]", "value": "20.2 µM (active)"}]}, {"smiles": "Cc1ccccc1NC(=O)CSc1ccsc1[N+](=O)[O-]", "values": [{"measurement": "IC50", "setting": "[2]", "value": "7.7 µM (active)"}, {"measurement": "IC50", "setting": "[3]", "value": "2.3 µM (active)"}]}, {"smiles": "CCOc1cccc2sc(N(CCN(C)C)C(=O)c3cc4ccccc4cc3OC)nc12", "values": [{"measurement": "AC50", "setting": "[1]", "value": "12.5 µM (active)"}]}, {"smiles": "CCOc1ccc(N(CC(=O)Nc2ccccc2OCC)S(=O)(=O)c2c(C)noc2C)cc1", "values": [{"measurement": "EC50", "setting": "[4]", "value": "0.567 µM (active)"}, {"measurement": "EC50", "setting": "[5]", "value": "0.495 µM (active)"}, {"measurement": "EC50", "setting": "[6]", "value": "2.32 µM (active)"}, {"measurement": "IC50", "setting": "[7]", "value": "> 67.5 µM (inactive)"}, {"measurement": "IC50", "setting": "cells", "value": "> 67.5 µM (inactive)"}]}, {"smiles": "C=C1c2ccccc2NC(=O)N1c1ccc(OC)cc1", "values": [{"measurement": "EC50", "setting": "[8]", "value": "> 91.1 µM (inactive)"}, {"measurement": "EC50", "setting": "[9]", "value": "> 91.1 µM (inactive)"}]}]}
